From ChEMBL document CHEMBL1158604, “New pyrazolo[1,5a]pyrimidines as orally active inhibitors of Lck” (Bioorg Med Chem Lett, 2010)
Activity calls are given as the source filed them. No cut-off for these calls is given here.

Columns and labels:
[1] = target: Vascular endothelial growth factor receptor 2 (Homo sapiens, UniProt P35968)
[2] = target: T1, Tyrosine-protein kinase Lck (Homo sapiens, UniProt P06239)
[3] = target: Tyrosine-protein kinase HCK (Homo sapiens, UniProt P08631)
[4] = target: Proto-oncogene tyrosine-protein kinase Src (Homo sapiens, UniProt P12931)
[5] = system: Liver microsomes; details: rat
Description: Clearance in rat liver microsomes

[6] = in vitro; details: rat, liver microsomes
Description: Half life in rat liver microsomes

[7] = target: Tyrosine-protein kinase JAK3 (Homo sapiens, UniProt P52333); assay: Inhibition of JAK3
[8] = target: Mast/stem cell growth factor receptor Kit (Homo sapiens, UniProt P10721); assay: Inhibition of cKIt
[9] = target: Receptor tyrosine-protein kinase erbB-2 (Homo sapiens, UniProt P04626); assay: Inhibition of Her2
[10] = target: Tyrosine-protein kinase ZAP-70 (Homo sapiens, UniProt P43403); assay: Inhibition of ZAP70
[11] = target: T1, Tyrosine-protein kinase Lck; assay: Inhibition of LCK in human Jurkat cells assessed as ZAP70 phosphorylation by FACS assay; format: cell-based
[12] = system: Mus musculus; assay: Immunosuppressive activity in BALB/c mouse assessed as CD3 antibody-induced IL2 production at 30 mg/kg, po relative to control; format: functional
[13] = target: Tyrosine-protein kinase JAK2 (Homo sapiens, UniProt O60674); assay: Inhibition of JAK2
[14] = system: Mus musculus; assay: Immunosuppressive activity in BALB/c mouse assessed as CD3 antibody-induced IL2 production at 100 mg/kg, po relative to control; format: functional
[15] = Clearance in rat; format: ADME, organism-based; details: in vivo
[16] = target: Proto-oncogene tyrosine-protein kinase receptor Ret (Homo sapiens, UniProt P07949); assay: Inhibition of Ret
[17] = target: Hepatocyte growth factor receptor (Homo sapiens, UniProt P08581); assay: Inhibition of cMet
[18] = target: Tyrosine-protein kinase ABL1 (Homo sapiens, UniProt P00519); assay: Inhibition of ABL
[19] = target: Angiopoietin-1 receptor (Homo sapiens, UniProt Q02763); assay: Inhibition of tie2
[20] = Half life in rat; format: ADME, organism-based; details: in vivo
[21] = Oral bioavailability in rat; format: ADME, organism-based; details: in vivo
[22] = Inhibition of cABL T315 mutant
[23] = system: Mus musculus; assay: Immunosuppressive activity in BALB/c mouse assessed as CD3 antibody-induced IL2 production at 10 mg/kg, po relative to control; format: functional
[24] = target: RAC-alpha serine/threonine-protein kinase (Homo sapiens, UniProt P31749); assay: Inhibition of PKBalpha
[25] = target: Platelet-derived growth factor receptor alpha (Homo sapiens, UniProt P16234); assay: Inhibition of PDGFRalpha
[26] = Volume of distribution in rat; format: ADME, organism-based; details: in vivo
[27] = system: Mus musculus; assay: Immunosuppressive activity in BALB/c mouse assessed as concanavalin A-induced T cell activation at 100 mg/kg, po relative to control; format: functional, organism-based; design: dose 100 mg/kg
[28] = target: Cyclin-dependent kinase 2/cyclin A (Homo sapiens, UniProt P24941); assay: Inhibition of CDK2/cyclinA; format: protein-complex assay
[29] = target: Insulin-like growth factor 1 receptor (Homo sapiens, UniProt P08069); assay: Inhibition of IGF1R
[30] = target: Tyrosine-protein kinase JAK1 (Homo sapiens, UniProt P23458); assay: Inhibition of JAK1
[31] = target: Fibroblast growth factor receptor 3 (Homo sapiens, UniProt P22607); assay: Inhibition of FGFR3K
[32] = target: Insulin receptor (Homo sapiens, UniProt P06213); assay: Inhibition of INSR
[33] = target: ALK tyrosine kinase receptor (Homo sapiens, UniProt Q9UM73); assay: Inhibition of Alk

COc1cc(-c2cnc3c(-c4cccc(N5CCN(C)CC5)c4)cnn3c2N)ccc1NC(=O)OCC(C)C
IC50 [1]: 9200 nM
IC50 [2]: 546 nM
IC50 [3]: > 1000 nM
IC50 [4]: > 1000 nM

CC(C)COC(=O)Nc1ccc(-c2cnc3c(-c4cccc(N5CCN(C)CC5)c4)cnn3c2N)cc1
IC50 [1]: 5350 nM
IC50 [3]: 594 nM
CL [5]: 612.5 µL/min
half-life [6]: 2.3 min
IC50 [4]: 1710 nM

CC(C)COC(=O)Nc1ccc(-c2cnc3c(-c4cccc(N5CCN(C(=O)CN)CC5)c4)cnn3c2N)cc1
IC50 [1]: 1900 nM
IC50 [2]: 7 nM
IC50 [3]: 270 nM
CL [5]: 11.2 µL/min
half-life [6]: 124 min
IC50 [4]: 762 nM

CN1CCN(c2ccc(-c3cnn4c(N)c(-c5ccc(NC(=O)Nc6ccccc6Cl)cc5)cnc34)cc2)CC1
IC50 [3]: 215 nM
IC50 [4]: > 1000 nM

Cc1nn2c(N)c(-c3cccc(O)c3)cnc2c1-c1ccc(N2CCN(C)CC2)cc1
IC50 [1]: 500 nM
IC50 [2]: > 1000 nM
IC50 [3]: > 1000 nM
IC50 [4]: > 1000 nM

CN1CCN(c2ccc(-c3cnn4c(N)c(-c5ccc(NC(=O)NCC6CCCCC6)cc5)cnc34)cc2)CC1
IC50 [3]: 21 nM
IC50 [4]: 143 nM

CN1CCN(c2ccc(-c3cnn4c(N)c(-c5ccc(NC(=O)CCC6CCCC6)cc5)cnc34)cc2)CC1
IC50 [1]: 1020 nM
IC50 [3]: 14 nM
IC50 [4]: 142 nM

CN1CCN(c2cccc(-c3cnn4c(N)c(-c5ccc(O)cc5)cnc34)c2)CC1
IC50 [1]: 470 nM
IC50 [2]: 30 nM
IC50 [3]: 342 nM
IC50 [4]: 442 nM

CC(C)COC(=O)Nc1ccc(-c2cnc3c(-c4ccc(N5CCN(C)CC5)cc4)cnn3c2N)cc1
IC50 [7]: > 10000 nM
IC50 [8]: 89 nM
IC50 [9]: > 10000 nM
IC50 [10]: > 10000 nM
IC50 [11]: 107 nM
inhibition in vivo at 30 mg/kg [12]: 21%
IC50 [1]: 4230 nM
IC50 [13]: > 10000 nM
IC50 [2]: 22 nM
IC50 [3]: 181 nM
inhibition in vivo at 100 mg/kg [14]: 57%
clearance [15]: 32.1 mL/min/kg
IC50 [16]: 4700 nM
IC50 [17]: > 10000 nM
IC50 [18]: 40 nM
CL [5]: 161.2 µL/min
IC50 [19]: 1000 nM
half-life [20]: 342 min
bioavailability [21]: 95%
IC50 [22]: 3250 nM
inhibition in vivo at 10 mg/kg [23]: -7%
IC50 [24]: > 10000 nM
IC50 [25]: 74 nM
Vd [26]: 6.42 L/kg
Activity [27]: Active
IC50 [28]: > 10000 nM
half-life [6]: 8.6 min
IC50 [29]: > 10000 nM
IC50 [30]: > 10000 nM
IC50 [31]: > 10000 nM
IC50 [4]: 662 nM
IC50 [32]: > 10000 nM
IC50 [33]: > 10000 nM

CN1CCN(c2cccc(-c3cnn4c(N)c(-c5ccc(NC(=O)NCC6CCCCC6)cc5)cnc34)c2)CC1
IC50 [1]: 130 nM
IC50 [3]: 70 nM
IC50 [4]: 227 nM

Cc1nc2c(-c3cccc(N4CCN(C)CC4)c3)cnn2c(N)c1-c1ccc(NC(=O)OCC(C)C)cc1
IC50 [1]: > 10000 nM
IC50 [2]: 116 nM
IC50 [3]: > 1000 nM
IC50 [4]: > 1000 nM

COCCN1CCN(c2ccc(-c3cnn4c(N)c(-c5ccc(NC(=O)OCC(C)C)cc5)cnc34)cc2)CC1
IC50 [1]: 2200 nM
IC50 [2]: 37 nM
IC50 [3]: 349 nM
IC50 [4]: 1000 nM

CN1CCN(c2ccc(-c3cnn4c(N)c(-c5ccc(NC(=O)c6ccc(C(F)(F)F)cc6)cc5)cnc34)cc2)CC1
IC50 [1]: 8300 nM
IC50 [3]: 256 nM
IC50 [4]: 1000 nM

CN1CCN(c2cccc(-c3cnn4c(N)c(-c5ccc(NC(=O)N(C)C6CCCCC6)cc5)cnc34)c2)CC1
IC50 [1]: 6000 nM
IC50 [3]: 110 nM
IC50 [4]: 554 nM

CN1CCN(c2cccc(-c3cnn4c(N)c(-c5ccc(NC(=O)Oc6ccccc6)cc5)cnc34)c2)CC1
IC50 [1]: 4100 nM
IC50 [3]: 193 nM
IC50 [4]: 688 nM

CC(C)COC(=O)Nc1ccc(-c2cnc3c(-c4cccc(N5CCOCC5)c4)cnn3c2N)cc1
IC50 [1]: 7350 nM
IC50 [2]: 699 nM
IC50 [3]: > 1000 nM
IC50 [4]: > 1000 nM

CN1CCN(c2ccc(-c3cnn4c(N)c(-c5ccc(NC(=O)N(C)C6CCCCC6)cc5)cnc34)cc2)CC1
IC50 [1]: 435 nM
IC50 [3]: 178 nM
IC50 [4]: 497 nM

Cc1cc(NC(=O)OCC(C)C)ccc1-c1cnc2c(-c3cccc(N4CCN(C)CC4)c3)cnn2c1N
IC50 [1]: 3400 nM
IC50 [2]: 23 nM
IC50 [3]: 456 nM
IC50 [4]: 462 nM

CN1CCN(c2cccc(-c3cnn4c(N)c(-c5ccc(NC(=O)c6ccc(C(F)(F)F)cc6)cc5)cnc34)c2)CC1
IC50 [1]: 2300 nM
IC50 [3]: 295 nM
IC50 [4]: > 1000 nM

CN1CCN(c2ccc(-c3cnn4c(N)c(-c5ccc(NC(=O)Oc6ccccc6)cc5)cnc34)cc2)CC1
IC50 [1]: 1000 nM
IC50 [3]: 88 nM
IC50 [4]: 394 nM

CN1CCN(c2cccc(-c3cnn4c(N)c(-c5ccc(NC(=O)CCC6CCCC6)cc5)cnc34)c2)CC1
IC50 [1]: 690 nM
IC50 [3]: 37 nM
IC50 [4]: 135 nM

CN1CCN(c2ccc(-c3cnn4c(N)c(-c5cccc(O)c5)cnc34)cc2)CC1
IC50 [1]: 96 nM
IC50 [2]: 8 nM
IC50 [3]: 8 nM
IC50 [4]: 2 nM

CC(C)COC(=O)Nc1ccc(-c2cnc3c(-c4cccc(N5CCNCC5)c4)cnn3c2N)cc1
IC50 [1]: 2100 nM
IC50 [2]: 7 nM
IC50 [3]: 310 nM
CL [5]: 29 µL/min
half-life [6]: 48 min
IC50 [4]: 642 nM

CN1CCN(c2cccc(-c3cnn4c(N)c(-c5ccc(NC(=O)Nc6ccccc6Cl)cc5)cnc34)c2)CC1
IC50 [3]: 172 nM
IC50 [4]: 1000 nM

CN1CCN(c2cccc(-c3cnn4c(N)c(-c5ccc(NS(=O)(=O)c6cccc(Cl)c6Cl)cc5)cnc34)c2)CC1
IC50 [1]: 5400 nM
IC50 [2]: 28 nM
IC50 [3]: > 1000 nM
IC50 [4]: > 1000 nM

CN1CCN(c2ccc(-c3cnn4c(N)c(-c5ccc(O)cc5)cnc34)cc2)CC1
IC50 [1]: 1300 nM
IC50 [2]: 36 nM
IC50 [3]: 85 nM
IC50 [4]: 396 nM

CC(C)COC(=O)Nc1ccc(-c2cnc3c(-c4cccc(N5CCN(S(C)(=O)=O)CC5)c4)cnn3c2N)cc1
IC50 [1]: > 10000 nM
IC50 [2]: 209 nM
IC50 [3]: 676 nM
CL [5]: 58.4 µL/min
half-life [6]: 23.7 min
IC50 [4]: > 1000 nM
